Among the test systems are OVCAR-8 ovarian; MDA-MB-231 breast; MDA-MB-435; NCI-H23 lung; SR leukemia; MDA-N; SW-620 colon; TK-10 renal; HCT-116 colon; NCI-H460 lung; CAKI-1 renal; NCI-H226 lung; SK-MEL-5 melanoma; NCI-H522 lung; NCI/ADR-RES ovarian; SF-268 CNS; MOLT-4 leukemia.
What all share (assay): DTP human tumour cell line panel, 48 h

In PubChem BioAssay (NCI) one finds TGI data, which are given here for 14 compounds.

SMILES strings stand for the structures.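 Each compound was tested at five concentrations against cells in 96-well plates for 48 hours. At the TGI there is no net growth.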

One may read the TGI as the concentration giving total growth inhibition. Low values mean greater sensitivity of the cells, high ones lower sensitivity of the cells.

Consider `Nc1c2ccccc2nc2ccc3c(=O)cc(-c4ccccc4)oc3c12`, for which the total growth inhibition concentration (TGI) in the test with OVCAR-8 ovarian was found to be 1.89 µM; in the test on MDA-MB-231 breast, 2.52 µM; in the test with MDA-MB-435 it was 2.39 µM; in the test on NCI-H23 lung it was 3.52 µM; in the test with SR leukemia, 2.23 µM; in the test with MDA-N, 2.13 µM. For the same compound, the TGI was 0.34 µM with SW-620 colon; 3.52 µM in the test with TK-10 renal; 0.306 µM in the test on HCT-116 colon; 2.22 µM in the test with NCI-H460 lung; 2.63 µM in the test on CAKI-1 renal; 2.56 µM in the test on NCI-H226 lung.

On to `O=S(=O)(c1ccccc1)C(c1ccc2ccccc2n1)S(=O)(=O)c1ccccc1`, for which the TGI in the test on OVCAR-8 ovarian, with MDA-MB-231 breast, with NCI-H23 lung, in the test on SK-MEL-5 melanoma, in the test on SR leukemia and in the test with MDA-N was over 100 µM in each case. The total growth inhibition concentration (TGI) in the test on NCI-H522 lung, in the test with NCI/ADR-RES ovarian, in the test with SF-268 CNS, in the test with SW-620 colon, in the test with TK-10 renal and with MOLT-4 leukemia was over 100 µM in each case. In addition, the TGI in the test with HCT-116 colon, in the test with NCI-H460 lung, in the test with CAKI-1 renal and in the test with NCI-H226 lung was over 100 µM throughout.

As to `COc1c(OC(C)C)c(OC(C)C)c2oc(=O)n3c2c1C(c1ccccc1-n1c(C)ccc1C)C=C3` (stereo not drawn), the TGI in the test with OVCAR-8 ovarian, with MDA-MB-231 breast, with MDA-MB-435, in the test on NCI-H23 lung, in the test with SK-MEL-5 melanoma and in the test with MDA-N was over 100 µM each time. In addition, the TGI with NCI-H522 lung, in the test on NCI/ADR-RES ovarian, in the test with SF-268 CNS, with SW-620 colon, in the test on TK-10 renal and in the test on MOLT-4 leukemia was over 100 µM each time. Besides, the TGI with HCT-116 colon is over 100 µM; with NCI-H460 lung, over 100 µM; with CAKI-1 renal, over 100 µM; in the test on NCI-H226 lung, 38.3 µM.

As to `CCCSc1ccc2[nH]c(/N=C/c3ccccc3)cc2c1`, the TGI is 56.2 µM in the test with OVCAR-8 ovarian; over 100 µM in the test on MDA-MB-435; over 100 µM with NCI-H23 lung; 20.4 µM in the test with SK-MEL-5 melanoma; 27.8 µM with SR leukemia; 62.6 µM with MDA-N. Also, the TGI in the test with NCI-H522 lung was 46.2 µM; in the test on NCI/ADR-RES ovarian, 47.9 µM; in the test with SF-268 CNS, 49.2 µM; with SW-620 colon, over 100 µM; with MOLT-4 leukemia it was 55.9 µM; with HCT-116 colon, 39.8 µM. The compound further yielded a TGI in the test with CAKI-1 renal of over 100 µM.

Consider `COc1cccc(C2c3cc4c(cc3OC(N3CCOCC3)C2C)OCO4)c1OC` (stereo not drawn), for which the total growth inhibition concentration (TGI) in the test with OVCAR-8 ovarian is over 100 µM; in the test on MDA-MB-435, 33.8 µM; with NCI-H23 lung, over 100 µM; in the test with SK-MEL-5 melanoma, 24.5 µM; in the test with SR leukemia it was 24.4 µM; with MDA-N, 46.9 µM. Moreover, the TGI is 34.3 µM with NCI-H522 lung; 29.7 µM in the test on NCI/ADR-RES ovarian; 92.2 µM in the test on SF-268 CNS; over 100 µM in the test with SW-620 colon; over 100 µM in the test on TK-10 renal; 20 µM in the test on MOLT-4 leukemia. For the same compound, the TGI in the test on HCT-116 colon was determined as 15.7 µM; in the test with NCI-H460 lung, 30.7 µM; in the test with CAKI-1 renal, 5.36 µM.

Consider `CN=c1c2c(c3[nH]c4ccccc4c4cnc1c34)NCCC2=O`, for which the TGI in the test on OVCAR-8 ovarian, with MDA-MB-231 breast, in the test with MDA-MB-435, in the test with NCI-H23 lung, in the test on SK-MEL-5 melanoma and in the test with MDA-N was over 10 µM each time. The TGI in the test on NCI-H522 lung, in the test with NCI/ADR-RES ovarian, in the test on SF-268 CNS, in the test on SW-620 colon, in the test with TK-10 renal and in the test with MOLT-4 leukemia was over 10 µM in each case. Besides, the TGI with HCT-116 colon, in the test on NCI-H460 lung, in the test on CAKI-1 renal and in the test with NCI-H226 lung was over 10 µM in each case.

`CC1(C)CC2=C(Sc3ccccc3N2)C(=O)C1C(=O)C(=O)Nc1cccc([N+](=O)[O-])c1` (stereo not drawn): the TGI in the test on OVCAR-8 ovarian, with MDA-MB-231 breast, in the test with MDA-MB-435, with NCI-H23 lung, in the test with SK-MEL-5 melanoma and in the test with MDA-N was over 100 µM each time. Further, the TGI with NCI-H522 lung, in the test on NCI/ADR-RES ovarian, in the test on SF-268 CNS, with SW-620 colon, with TK-10 renal and in the test on MOLT-4 leukemia was over 100 µM in each case. Besides, the concentration for total growth inhibition (TGI) with HCT-116 colon, with NCI-H460 lung, in the test on CAKI-1 renal and with NCI-H226 lung was over 100 µM throughout.

For the compound `c1ccc(N=C(Nc2ccccc2)N2CCCC2)cc1`, the TGI in the test on OVCAR-8 ovarian, with MDA-MB-435, in the test on NCI-H23 lung, in the test on SK-MEL-5 melanoma, with SR leukemia and in the test on MDA-N was over 100 µM each time. The TGI in the test on NCI-H522 lung, in the test on NCI/ADR-RES ovarian, in the test with SF-268 CNS, with SW-620 colon, in the test with TK-10 renal and in the test on MOLT-4 leukemia was over 100 µM in each case. Further, the TGI in the test with HCT-116 colon, with NCI-H460 lung, in the test on CAKI-1 renal and in the test on NCI-H226 lung was over 100 µM throughout.

With `Nc1nc(N)c2cc(-c3ccccc3)cnc2n1`, the TGI with OVCAR-8 ovarian was determined as 57.4 µM; in the test with MDA-MB-231 breast it was 20.4 µM; in the test with NCI-H23 lung it was 25.9 µM; in the test on SK-MEL-5 melanoma, 27.3 µM; with SR leukemia it was 21.2 µM; with MDA-N, 25.4 µM. Besides, the TGI in the test on NCI-H522 lung was 44.9 µM; in the test with NCI/ADR-RES ovarian, over 100 µM; in the test with SF-268 CNS, 8.78 µM; in the test on SW-620 colon it was 22.9 µM; in the test on TK-10 renal, 29.9 µM; with MOLT-4 leukemia, 28.3 µM. In addition, the TGI in the test with HCT-116 colon was 17.3 µM; in the test with NCI-H460 lung, 24.3 µM; in the test with CAKI-1 renal, 29.5 µM; with NCI-H226 lung, 33.1 µM.

`Clc1ccc(OCc2nnc(CCCCCCCCc3nnc(COc4ccc(Cl)cc4Cl)n3Nc3ccccc3)n2Nc2ccccc2)c(Cl)c1`: the TGI came out at 50.3 µM in the test on OVCAR-8 ovarian; 24.4 µM with MDA-MB-231 breast; 19.5 µM in the test with MDA-MB-435; 51 µM in the test with NCI-H23 lung; 7.05 µM in the test with SK-MEL-5 melanoma; 27.7 µM in the test with MDA-N. Further, the TGI with NCI-H522 lung was 24.7 µM; with NCI/ADR-RES ovarian, 51.8 µM; with SF-268 CNS it was 32.1 µM; in the test on SW-620 colon it was over 62.6 µM; in the test on TK-10 renal, over 75.1 µM; in the test on MOLT-4 leukemia it was over 100 µM. For the same compound, the TGI in the test on HCT-116 colon is 25.1 µM; with NCI-H460 lung, 21.1 µM; with CAKI-1 renal, 49.3 µM; in the test on NCI-H226 lung, 38 µM.

Regarding `C1CCCCC2(CCCCCCCCC3(CCC1)OCCO3)OCCO2`, the TGI with OVCAR-8 ovarian, in the test with MDA-MB-435, in the test on NCI-H23 lung, in the test on SK-MEL-5 melanoma, in the test with SR leukemia and with MDA-N was over 100 µM in each case. The TGI in the test on NCI-H522 lung, in the test on NCI/ADR-RES ovarian, in the test on SF-268 CNS, in the test with SW-620 colon, in the test with TK-10 renal and in the test on HCT-116 colon was over 100 µM each time. In addition, the TGI in the test with NCI-H460 lung, in the test with CAKI-1 renal and in the test on NCI-H226 lung was over 100 µM in each case.

Regarding `COc1cc(/C=C2\N=C(c3ccccc3)N(c3nc4cc(C)c(C)cc4s3)C2=O)ccc1O`, the total growth inhibition concentration (TGI) in the test on OVCAR-8 ovarian was over 100 µM; with MDA-MB-231 breast, over 100 µM; in the test on MDA-MB-435, 52.1 µM; in the test with SK-MEL-5 melanoma it was over 100 µM; with SR leukemia it was 57.8 µM; with MDA-N it was 37.7 µM. Also, the TGI in the test with NCI/ADR-RES ovarian is over 100 µM; in the test with SF-268 CNS, over 100 µM; in the test with SW-620 colon it was over 100 µM; in the test on TK-10 renal it was over 100 µM; in the test with MOLT-4 leukemia, over 100 µM; in the test on HCT-116 colon, 61.8 µM. Besides, the concentration for total growth inhibition (TGI) in the test on NCI-H460 lung and in the test on CAKI-1 renal was over 100 µM in each case.

As for `C=C1C(=O)O[C@@H]2[C@@H]3O[C@@H](C[C@@H]13)[C@](C)(O)CC/C=C(\C)CCC[C@@H]2C`, the total growth inhibition concentration (TGI) in the test with OVCAR-8 ovarian was determined as 22.2 µM; with MDA-MB-231 breast, 37.5 µM; in the test on MDA-MB-435, 24.9 µM; in the test on NCI-H23 lung, 28 µM; with SK-MEL-5 melanoma it was 30.6 µM; with MDA-N it was 18.3 µM. The TGI in the test on NCI-H522 lung is 20.1 µM; with NCI/ADR-RES ovarian, 38.5 µM; in the test on SF-268 CNS it was 43.9 µM; in the test on SW-620 colon, 38.4 µM; in the test on TK-10 renal, 27.7 µM; in the test on MOLT-4 leukemia it was over 100 µM. In addition, the TGI in the test on HCT-116 colon is 21.2 µM; in the test with NCI-H460 lung it was 30.8 µM; with CAKI-1 renal, 28.6 µM; with NCI-H226 lung, 36.1 µM.

With `Cc1cccc(C)c1NC(=O)C(=O)CC(=O)/C=C/c1ccccc1`, the TGI with OVCAR-8 ovarian, in the test on MDA-MB-231 breast, with MDA-MB-435, in the test with NCI-H23 lung, in the test with SK-MEL-5 melanoma and with MDA-N was over 100 µM each time. In addition, the TGI in the test on NCI-H522 lung, in the test with NCI/ADR-RES ovarian, with SF-268 CNS, with SW-620 colon, in the test on TK-10 renal and with MOLT-4 leukemia was over 100 µM in each case. For the same compound, the TGI with HCT-116 colon, in the test with NCI-H460 lung, in the test on CAKI-1 renal and in the test on NCI-H226 lung was over 100 µM in each case.
